# Values of other authors as cited in patent US20220088024A1, “METHODS FOR TREATING CANCER USING TOZADENANT” (Biotie Therapies, Inc., priority 2018, published 2022).
# Test system: mouse tumor models
# Conditions: cited from earlier work
SMILES,Efficacy in mouse tumor models (alone and in combination with an anti-PD-1 agent (Willingham et al. 2016)),Activity in a mouse tumor model (monotherapy (Hammerl et al. 2016))
Cc1ccc(-c2nc(N)nc3c2nnn3Cc2cccc(CO[C@H]3CCOC3)n2)o1 [CPI444],effective,–
Nc1nc2c(cnn2CCc2ccccc2)c2nc(-c3ccco3)nn12 [SCH 58261],–,demonstrated activity as monotherapy
